Molecules are shown by their SMILES.

The values below come from patent US7838485B2, “Biodegradable alkaline disinfectant cleaner with analyzable surfactant” (American Sterilizer Company, priority 2007, dated 2010).

This assay relates to S. aureus ATCC 6538. Nature of the assay: Quantitative modified AOAC Use Dilution Test, log reduction on stainless steel penicylinders. It counts as cell-based. Conditions: 5% Fetal bovine serum soil load, contact time 10 min., 10% of the product. From the text: Tests were done using the aforementioned modified version of the AOAC Use Dilution Test, to quantify the number of viable bacteria remaining on the stainless steel penicylinders. […] Starting populations are listed in parentheses.

Regarding `[Na+].[OH-]` [13% NaOH, sodium hydroxide], the “Average Log Reduction” value by setting is: (40° C.) 2.69; (60° C.) 7.00; (RT) 1.76.
